For series [1], the system named is NCI cell panel (60 cell lines). Put plainly: cytotoxicity NCI cell panel, MTT assay. The conditions noted are these: 48 h, read-out: cytotoxicity NCI cell panel IC50. From the text:
(§1) Highlighted are the compounds being made for antitumor testing.
(In general: Tetrazolium dyes change colour on reduction, which living cells bring about.)

For series [2], the target named is mTOR (Homo sapiens, UniProt P42345). In words: mTOR inhibition. The format is biochemical.
Text: as §1

The test system of series [3] is C57BL6 mice. In words: in vivo. The conditions noted are these: for Maximum tolerated dose mg/kg ip qD × 4: MTD = >10% body weight loss, C57BL6 mice; for Ratio liver toxicity/lymphocyte toxicity: liver toxicity relative to wortmannin/decrease in blood lymphocytes relative to wortmannin.
Text: as §1

Series [4] is described as follows: in vivo. The conditions noted are these: C57BL6, mouse, in vivo, ip.
Text: as §1

Data on 5 compounds can be found in patent US6703414B2, “Device and method for treating restenosis” (Arizona Board of Regents on behalf of the University of …, priority 2001, dated 2004).

SMILES strings stand for the structures.

For the compound `C=CCN(/C=C1/C(=O)O[C@H](COC)[C@@]2(C)C1=C(O)C(=O)C1=C2[C@H](OC(C)=O)C[C@]2(C)C(=O)CC[C@@H]12)CC=C` [DJM2-166, Acetic acid 4-diallylaminomethylene-6-hydroxy-1-α-methoxymethyl-10β,13β-dimethyl-3,7,17-trioxo-1,3,4,7,10,11β,12,13,14α,15,16,17-dodecahydro-2-oxa-cyclopenta[α]phenanthren-11-yl ester], the half-maximal inhibitory concentration (IC50) was 2200 nM in series [1] and greater than 3000 nM in series [2].

Take `COC[C@H]1OC(=O)/C(=C/N2CCCC2)C2=C(O)C(=O)C3=C([C@H](OC(C)=O)C[C@]4(C)C(=O)CC[C@@H]34)[C@]21C` [DJM2-167, Acetic acid 6-hydroxy-1α-methoxymethyl-10β,13β-dimethyl-3,7,17-trioxo-4-pyrrolidin-1-yl-methylene-1,3,4,7,10,11β,12,13,14α,15,16,17-dodecahydro-2-oxa-cyclopenta[α]phenanthren-11-yl]: the results for the IC50 in series [1] and in series [2] were 500 nM and greater than 3000 nM, respectively.

As for `COC[C@H]1OC(=O)/C(=C/NC(C)C(=O)O)C2=C(O)C(=O)C3=C([C@H](OC(C)=O)C[C@]4(C)C(=O)CC[C@@H]34)[C@]21C` (stereo partly drawn) [DJM2-177], in series [3], the “Maximum tolerated dose mg/kg ip qD × 4” value came to 6 mg/kg and the “Ratio liver toxicity/lymphocyte toxicity” value came out at 0.1.

Regarding `COC[C@H]1OC(=O)/C(=C/SCc2ccccc2)C2=C(O)C(=O)C3=C([C@H](OC(C)=O)C[C@]4(C)C(=O)CC[C@@H]34)[C@]21C` [DJM2-170], in series [3], the “Maximum tolerated dose mg/kg ip qD × 4” value came out at 9 mg/kg and the “Ratio liver toxicity/lymphocyte toxicity” value is recorded as 1.5.

In the case of `COC[C@H]1OC(=O)c2coc3c2[C@@]1(C)C1=C(C3=O)[C@@H]2CCC(=O)[C@@]2(C)C[C@H]1OC(C)=O` [wortmannin, reference compound], the MTD at 4 days in series [4] was determined as 2.5 mg/kg.

As a reminder, the IC50 is the concentration at which inhibition is half-maximal.
